Results on 57 compounds are retold here after ChEMBL document CHEMBL1157879.

Molecules are shown by their SMILES. Activity calls are given as the source filed them. The calls are words filed in the database; no cut-off is given here.

The target in assay [1] is Lysosomal alpha-glucosidase (Homo sapiens) (UniProt P10253). In words: Activation of purified human recombinant acid alpha-glucosidase using resorufin alpha-D-glucopyranoside as substrate at 100 uM after 45 mins relative to basal.
Assay [2] shares this target. In words: Activation of purified human recombinant acid alpha-glucosidase using glycogen as substrate up to 100 uM after 45 mins.
Assay [3] concerns the target T1, Alpha-galactosidase A (Homo sapiens) (UniProt P06280).
T1 sequence (whole entry): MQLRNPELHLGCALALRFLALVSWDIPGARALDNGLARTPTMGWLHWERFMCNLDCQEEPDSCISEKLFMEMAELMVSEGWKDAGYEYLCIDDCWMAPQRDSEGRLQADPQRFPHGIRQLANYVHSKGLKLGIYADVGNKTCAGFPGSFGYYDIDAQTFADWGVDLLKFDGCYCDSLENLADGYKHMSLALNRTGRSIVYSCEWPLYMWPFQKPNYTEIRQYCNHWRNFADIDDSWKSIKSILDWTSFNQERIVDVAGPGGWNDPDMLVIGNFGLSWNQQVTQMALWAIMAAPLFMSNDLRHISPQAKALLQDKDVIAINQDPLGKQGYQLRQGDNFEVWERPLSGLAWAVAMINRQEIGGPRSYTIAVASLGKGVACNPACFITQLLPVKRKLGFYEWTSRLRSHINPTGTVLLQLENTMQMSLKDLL
Kind of assay: Activation of purified alpha-galactosidase A using 4-methylumbelliferyl-alpha-D-galactoside as substrate after 45 mins relative to basal.

Assay [4] deals with Lysosomal alpha-glucosidase (Homo sapiens) (UniProt P10253). Kind of assay: Activation of purified human recombinant acid alpha-glucosidase using 4-methylumbelliferyl-alpha-D-glucopyranoside as substrate after 45 mins relative to basal.
Assay [5] shares this target. Kind of assay: Activation of purified human recombinant acid alpha-glucosidase using resorufin alpha-D-glucopyranoside as substrate after 45 mins relative to basal.
Assay [6] shares this target. In words: Activation of purified acid alpha-glucosidase in human spleen homogenates using resorufin alpha-D-glucopyranoside as substrate after 45 mins relative to basal.
Assay [7] has the same target. Kind of assay: Activation of purified acid alpha-glucosidase in human spleen homogenates using resorufin alpha-D-glucopyranoside as substrate at 10 uM after 45 mins relative to basal.
The target is the same in assay [8]. Kind of assay: Activation of purified acid alpha-glucosidase in human spleen homogenates using 4-methylumbelliferyl-alpha-D-glucopyranoside as substrate after 45 mins relative to basal.

In the case of `CCCN1CNc2c(c(=O)[nH]c(=S)n2CCc2ccccc2OC)C1`, in assay [1], the Activity came to 243%.
The same measure, in the same setting: under `CCCN1CNc2c(c(=O)[nH]c(=S)n2CCc2ccc(C)c(C)c2)C1` stands 338%.
With `CCCN1CNc2c(c(=O)[nH]c(=S)n2CCc2cccc(Cl)c2Cl)C1`, the outcome in assay [2] and in assay [3] was inactive. In addition, the Activity in assay [1] is 346%; in assay [4], “Dose-dependent effect”.
With `CCCN1CNc2c(c(=O)[nH]c(=S)n2CCc2cc(OC)ccc2OC)C1`, in assay [1], the Activity worked out at 327%.
On the same count and under the same terms, the result for `CCCN1CNc2c(c(=O)[nH]c(=S)n2CCc2ccc(OC)cc2)C1` reads 309%; that for `CCCN1CNc2c(c(=O)[nH]c(=S)n2CCc2ccccc2C)C1`, 136%.
In the case of `CCCN1CNc2c(c(=O)[nH]c(=S)n2CCc2cc(C)cc(C)c2)C1`, the Activity in assay [1] came to 218%.
For the compound `CCCN1CNc2c(c(=O)[nH]c(=S)n2CCc2cccs2)C1`, the Activity in assay [1] is 221%.
For the compound `CCCCn1c(N)c(NCC)c(=O)[nH]c1=O`, the outcome in assay [1] was inactive.
On to `CCCN1CNc2c(c(=O)[nH]c(=S)n2CCc2ccc(OC)c(OC)c2)C1`, for which the outcome in assay [2] and in assay [3] was inactive. For the same compound, the Activity result is “Dose-dependent effect” in assay [5]; 356% in assay [1]; “Dose-dependent effect” in assay [6]; “Dose-dependent effect” in assay [4]; “Dose-dependent effect” in assay [8]. This compound gave a fold change (FC) in assay [7] of 1.5.
As for `COc1ccc(CCn2c3c(c(=O)[nH]c2=S)CN(Cc2ccccc2)CN3)cc1OC`, in assay [1], the Activity is 335%.
As to `CCCN1CNc2c(c(=O)[nH]c(=S)n2CCCc2ccccc2)C1`, the Activity in assay [1] was determined as 166%.
Same read-out and setting: the result for `COc1ccc(CCn2c(=S)[nH]c(=O)c3c(C)cc(C)nc32)cc1OC` reads “inactive”; that for `CCCN1CNc2c(c(=O)[nH]c(=S)n2CCc2ccc(OCC)c(OCC)c2)C1`, 306%; that for `CCCN1CNc2c(c(=O)[nH]c(=S)n2CCc2cc(C)ccc2C)C1`, 245%.
The same measure, in the same setting: under `CCCN1CNc2c(c(=O)[nH]c(=S)n2CCc2ccccc2Cl)C1` stands 311%; under `CCCN1CNc2c(c(=O)[nH]c(=O)n2CCc2ccc(OC)c(OC)c2)C1`, 297%.
The same measure, in the same setting: the result for `COc1ccc(CCn2c(N)cc(=O)[nH]c2=S)cc1OC` reads 32.1%; that for `CCCN1CNc2c(c(=O)[nH]c(=S)n2CC(C)(C)C)C1`, “inactive”; that for `CCCN1CNc2c(c(=O)[nH]c(=S)n2CCc2ccc3c(c2)OCCO3)C1`, 328%.
With `CCCN1CNc2c(c(=O)[nH]c(=S)n2CCc2cccc(Cl)c2)C1`, in assay [1], the Activity came to 197%.
Still for that read-out and setting: the result for `CCCN1CNc2c(c(=O)[nH]c(=S)n2CCc2ccc(Cl)c(Cl)c2)C1` reads 88.8%; that for `CCCN1CNc2c(c(=O)[nH]c(=S)n2CCc2ccc(C)cc2C)C1`, 323%; that for `CCCN1CNc2c(c(=O)[nH]c(=S)n2CCc2ccc(Cl)cc2)C1`, 120%.
As to `COc1ccc(C#Cc2cnc(Cl)c3cncnc23)cc1OC`, in assay [1], the result was inactive.
The same measure, in the same setting: the result for `COc1ccc(CCn2c(=S)[nH]c(=O)c3nc[nH]c32)cc1OC` reads “inactive”; that for `CCCN1CNc2c(c(=O)[nH]c(=S)n2CCc2ccc(Cl)cc2Cl)C1`, 321%.
On the same count and under the same terms, under `CCCN1CNc2c(c(=O)[nH]c(=S)n2CCc2cccc(OC)c2OC)C1` stands 262%.
The same measure, in the same setting: the result for `COc1ccc(CCc2c[nH]c(=O)c3cncnc23)cc1OC` reads “inactive”.
Consider `CCCN1CNc2c(c(=O)[nH]c(=S)n2CCc2cccc(C)c2C)C1`, for which the Activity in assay [1] is 300%.
On the same count and under the same terms, under `CCCN1CNc2c(c(=O)[nH]c(=S)n2CCc2cccc(OC)c2)C1` stands 302%; under `CCCN1CNc2c(c(=O)[nH]c(=S)n2CCc2ccc(OC)cc2OC)C1`, 308%; under `CCCN1CNc2c(c(=O)[nH]c(=S)n2CCc2ccccn2)C1`, 30.6%.
The same measure, in the same setting: under `COc1ccc(CCn2c3c(c(=O)[nH]c2=S)CN(c2ccccc2)CN3)cc1OC` stands 275%; under `CCCN1CNc2c(c(=O)[nH]c(=S)n2CCc2ccsc2)C1`, 192%.
Consider `CCCN1CNc2c(c(=O)[nH]c(=S)n2CCc2c(Cl)cccc2Cl)C1`, for which the result in assay [2] and in assay [3] was inactive. Also, the Activity in assay [1] is 332%; in assay [4], “Dose-dependent effect”.
As for `COc1ccc(CCn2c3c(c(=O)[nH]c2=S)CN(C)CN3)cc1OC`, the Activity in assay [1] amounted to 282%.
Still for that read-out and setting: the result for `CCCN1CNc2c(c(=O)[nH]c(=S)n2CCc2ccccc2)C1` reads 142%; that for `O=c1[nH]cc(CCc2ccccc2)c2ncncc12`, “inactive”; that for `COc1ccc(CCn2c(=S)[nH]c(=O)c3nccnc32)cc1OC`, “inactive”.
On the same count and under the same terms, under `COc1ccc(CCn2c3c(c(=O)[nH]c2=O)C(NC(=O)c2cccs2)(C(F)(F)F)C(=O)N3)cc1OC` (stereo unspecified) stands 64.2%; under `CCCN1CNc2c(c(=O)[nH]c(=S)n2CCc2c(C)cccc2C)C1`, 112%; under `CCCN1CNc2c(c(=O)[nH]c(=S)n2CCc2cc(Cl)cc(Cl)c2)C1`, 316%.
Still for that read-out and setting: under `CCCN1CNc2c(c(=O)[nH]c(=S)n2CCC)C1` stands “inactive”.
Take `CCCN1CNc2c(c(=O)[nH]c(=S)n2CCc2ccc(C)cc2)C1`: the Activity in assay [1] worked out at 300%.
On the same count and under the same terms, under `CCCN1CNc2c(c(=O)[nH]c(=S)n2CC(C)C)C1` stands “inactive”.
Same read-out and setting: the result for `COc1ccc(C#Cc2c[nH]c(=O)c3cncnc23)cc1OC` reads “inactive”; that for `CCCN1CNc2c(c(=O)[nH]c(=S)n2CCc2c(OC)cccc2OC)C1`, 227%.
Same read-out and setting: the result for `CCCN1CNc2c(c(=O)[nH]c(=S)n2CCc2cc(OC)cc(OC)c2)C1` reads 332%.
`CCCN1CNc2c(c(=O)[nH]c(=S)n2Cc2ccc(OCC)c(OCC)c2)C1`: the outcome in assay [2] and in assay [3] was inactive. Further, the Activity in assay [1] was 365%; in assay [4], “Dose-dependent effect”.
`COc1ccc(CCn2c3c(c(=O)[nH]c2=S)CN(CC(C)C)CN3)cc1OC`: in assay [2], the result was inactive. In assay [1], the Activity came to 338%.
For `COc1ccc(C(=O)NC2(C(F)(F)F)C(=O)Nc3c2c(=O)[nH]c(=O)n3CCc2ccc(OC)c(OC)c2)cc1` (stereo unspecified), in assay [1], the Activity stood at 121%.
On the same count and under the same terms, under `CCCN1CNc2c(c(=O)[nH]c(=S)n2CCc2cccc(C)c2)C1` stands 295%; under `CCCN1CNc2c(c(=O)[nH]c(=S)n2CCc2cc(Cl)ccc2Cl)C1`, 325%.
`COc1ccc(CCn2c3c(c(=O)[nH]c2=S)CN(C(C)C)CN3)cc1OC`: in assay [3], the result was inactive. The Activity is 234% in assay [1] and “Dose-dependent effect” in assay [4].
For `O=c1[nH]cc(C#Cc2ccccc2)c2ncncc12`, the outcome in assay [1] was inactive.
Still for that read-out and setting: the result for `Clc1ncc(C#Cc2ccccc2)c2ncncc12` reads “inactive”.
